The text below walks through data of PubChem BioAssay (NCI).

Structures are written as SMILES.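 Growth conditions: 96-well plates. Treatment: test compound, 48 hours, 5 concentrations. Analysis: linear interpolation between bracketing concentrations; unreached endpoints set to highest concentration. GI50 marks 50% less growth. TGI: concentration producing complete growth inhibition.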 Where only a bound is given, the exact number is not on record here.

Test systems include MOLT-4 leukemia; HOP-62 NSCLC; OVCAR-3 ovarian; MDA-MB-435; SNB-19 CNS; SF-295 CNS; SK-MEL-2 melanoma; MALME-3M melanoma; NCI-H460 lung; PC-3 prostate; SF-539 CNS.
Common to all, as to experiment: inhibition of tumour cell growth, NCI panel, 48 h

Regarding `Oc1ccc(-c2nc(-c3cccnc3)c(-c3ccc(Cl)cc3)[nH]2)cc1`, the TGI in the assay on MOLT-4 leukemia was 18.1 µM; with HOP-62 NSCLC it was 30.9 µM; in the assay on OVCAR-3 ovarian, 28 µM; in the assay with MDA-MB-435 it was 25.5 µM; in the assay on SNB-19 CNS, 31.2 µM; with SF-295 CNS it was 27.3 µM. Besides, the TGI came to 32.8 µM in the assay on SK-MEL-2 melanoma, 26.8 µM with MALME-3M melanoma, 24 µM with NCI-H460 lung and 19.5 µM in the assay on PC-3 prostate.

As to `CCOC(=O)c1nc2ccc(C(F)(F)F)cc2nc1NCc1cc(OC)c(OC)c(OC)c1`, the TGI in the assay on MOLT-4 leukemia, in the assay on HOP-62 NSCLC, in the assay on OVCAR-3 ovarian, in the assay with MDA-MB-435, with SNB-19 CNS and in the assay with SF-295 CNS was more than 100 µM throughout. The TGI in the assay on SK-MEL-2 melanoma, in the assay on SF-539 CNS and with PC-3 prostate was more than 100 µM throughout.

Turning to `O=C1CCC(c2ccc(Cl)cc2)=NN1c1nsc2ccccc12`, the TGI in the assay with MOLT-4 leukemia is 53.2 µM; in the assay on HOP-62 NSCLC, more than 100 µM; in the assay with OVCAR-3 ovarian, 44.7 µM; in the assay on SNB-19 CNS, more than 100 µM; in the assay with SK-MEL-2 melanoma, 38.7 µM; in the assay with SF-539 CNS, more than 100 µM. The same compound showed a TGI in the assay with NCI-H460 lung of more than 100 µM.

With `NC(N)=N/N=C/c1c[nH]c2ccccc12`, the TGI with MOLT-4 leukemia, with HOP-62 NSCLC, with OVCAR-3 ovarian, with SNB-19 CNS, with SF-295 CNS and with SK-MEL-2 melanoma was more than 100 µM in each case. The TGI with MALME-3M melanoma, in the assay with SF-539 CNS and in the assay on NCI-H460 lung was more than 100 µM throughout.

Consider `O=C(N/N=C/c1ccccc1)c1c(-c2cccnc2)cnc2ccccc12`, for which the TGI with MOLT-4 leukemia, in the assay with HOP-62 NSCLC, in the assay on OVCAR-3 ovarian, in the assay with SNB-19 CNS, in the assay on SF-295 CNS and in the assay on SK-MEL-2 melanoma was more than 100 µM throughout. Further, the TGI in the assay with MALME-3M melanoma, in the assay on SF-539 CNS, in the assay on NCI-H460 lung and in the assay with PC-3 prostate was more than 100 µM in each case.

Consider `NN/C(=N\S(=O)(=O)c1cc2ccccc2s1)Nc1ccc(Cl)cc1`, for which the TGI was determined as 68 µM in the assay on MOLT-4 leukemia; 38.2 µM with HOP-62 NSCLC; 34.5 µM with OVCAR-3 ovarian; 64.6 µM with SNB-19 CNS; 43.2 µM with SF-295 CNS; 34.5 µM with SK-MEL-2 melanoma. Moreover, the figures for the TGI in the assay on SF-539 CNS, in the assay with NCI-H460 lung and with PC-3 prostate were 29.8 µM, 39.6 µM and 62.4 µM, respectively.

Take `COc1cc(/C=C2\C(=O)N(c3ccccc3)C(c3ccccc3)S2(=O)=O)cc(OC)c1OC` (stereo not drawn): the TGI in the assay with MOLT-4 leukemia, with HOP-62 NSCLC, in the assay on OVCAR-3 ovarian, in the assay on MDA-MB-435, in the assay on SNB-19 CNS and with SF-295 CNS was more than 100 µM each time. For the same compound, the TGI in the assay on SK-MEL-2 melanoma, with MALME-3M melanoma, in the assay with SF-539 CNS and in the assay on NCI-H460 lung was more than 100 µM in each case.

For the compound `Cc1nc(-c2cc3cc([N+](=O)[O-])ccc3oc2=O)cs1`, the TGI in the assay with MOLT-4 leukemia, in the assay on HOP-62 NSCLC, with MDA-MB-435, with SNB-19 CNS, in the assay with SF-295 CNS and in the assay with SK-MEL-2 melanoma was more than 100 µM in each case. The TGI with SF-539 CNS, in the assay on NCI-H460 lung and in the assay on PC-3 prostate was more than 100 µM each time.

Take `CC(C)=CCC/C(C)=C/C=C/C(C)=C/C=C/C(C)=C/C=C/C=C(C)/C=C/C=C(C)/C=C/[C@H]1C(C(C)(C)O)CC[C@]1(C)O` (stereo partly drawn): the TGI is 54.9 µM in the assay with MOLT-4 leukemia; 40.8 µM in the assay on HOP-62 NSCLC; 37.8 µM with OVCAR-3 ovarian; 61.2 µM in the assay with MDA-MB-435; more than 100 µM with SF-295 CNS; more than 100 µM with SK-MEL-2 melanoma. The TGI in the assay on SF-539 CNS, in the assay with NCI-H460 lung and with PC-3 prostate was more than 100 µM each time.

Turning to `CCOC(=O)c1cc(C(O)P2(=O)N(CC(C)(C)C)[C@@H]3CCCC[C@H]3N2CC(C)(C)C)cn1C(=O)OC(C)(C)C` (stereo partly drawn), the TGI in the assay on MOLT-4 leukemia was 34 µM; in the assay on HOP-62 NSCLC it was 28.1 µM; in the assay with OVCAR-3 ovarian, 25 µM; in the assay with MDA-MB-435, 27 µM; with SNB-19 CNS it was 46.2 µM; in the assay on SF-295 CNS it was 32 µM. The TGI in the assay with SK-MEL-2 melanoma worked out at 32.8 µM; in the assay with MALME-3M melanoma, 33.6 µM; in the assay on PC-3 prostate, 48.5 µM.

In the case of `O=C(O)c1ccc([N+](=O)[O-])c2cc3cnccc3nc12`, the TGI in the assay on MOLT-4 leukemia is 29.7 µM; with HOP-62 NSCLC, more than 100 µM; in the assay on OVCAR-3 ovarian it was 36.4 µM; in the assay with MDA-MB-435 it was more than 100 µM; in the assay with SF-295 CNS it was more than 100 µM; in the assay with SK-MEL-2 melanoma it was 38.9 µM. Besides, the TGI in the assay on MALME-3M melanoma is 42.2 µM; in the assay with NCI-H460 lung, more than 100 µM; in the assay on PC-3 prostate, 34.6 µM.

Take `CNc1ccc(C(=O)CC(O)CCC(C)C2OC(=O)CC(O)CC(=O)CC(O)CC(O)CC(O)CC(O)CC3(O)CC(O)C(C(=O)OC)C(CC(O[C@@H]4O[C@H](C)[C@@H](O)[C@H](N)[C@@H]4O)/C=C/C=C/C=C/C=C/C=C/C=C/C=C/C2C)O3)cc1` (stereo partly drawn): the GI50 in the assay on MOLT-4 leukemia was 2.62 µM; in the assay with HOP-62 NSCLC, 2.27 µM; in the assay on OVCAR-3 ovarian it was 2.73 µM; in the assay with MDA-MB-435, 2.02 µM; in the assay on SNB-19 CNS it was 3.82 µM; with SF-295 CNS, 2.63 µM. The GI50 in the assay with SK-MEL-2 melanoma is 3.59 µM; in the assay with SF-539 CNS, 13.6 µM; in the assay on NCI-H460 lung it was 2.97 µM. In addition, the TGI is 6.31 µM in the assay on MOLT-4 leukemia; 5.03 µM with HOP-62 NSCLC; 6.26 µM with OVCAR-3 ovarian; 6.19 µM in the assay with MDA-MB-435; more than 100 µM in the assay with SNB-19 CNS; 9.67 µM with SF-295 CNS. For the same compound, the figures for the TGI in the assay with SK-MEL-2 melanoma, in the assay on SF-539 CNS and in the assay with NCI-H460 lung were 8.86 µM, 47.9 µM and 10.1 µM, respectively.

Regarding `COc1ccc(C2OC[C@H]3O[C@@H](OCc4ccccc4)[C@H](O)[C@@H](O)[C@@H]3O2)cc1` (stereo partly drawn), the TGI in the assay with MOLT-4 leukemia, in the assay on HOP-62 NSCLC, in the assay on OVCAR-3 ovarian, with MDA-MB-435, in the assay with SNB-19 CNS and in the assay on SF-295 CNS was more than 100 µM in each case. The TGI in the assay on SK-MEL-2 melanoma, with SF-539 CNS, with NCI-H460 lung and in the assay on PC-3 prostate was more than 100 µM each time.
